Assay results taken from patent publication US11946094B2, “Combination therapies and methods of use thereof” (Augusta University Research Institute, Inc., priority 2017, dated 2024).
Counter-ions that a name gives are not always drawn. Like-named read-outs stand apart in the source and are kept apart here.

Test system: OVCAR-8 cells
Test: Drug-siRNA combination screen: 346-compound anticancer library at 100 nM, CCK-8 viability
Settings: for synergy / antagonism of drug with gene knockdowns, in words: drug 100 nM, panel of 18 siRNA knockdowns; for number of tested HDACi highly synergistic with the gene knockdown: 12 tested HDACi; for number of antagonistic/additive or highly antagonistic compounds with the gene knockdown: 346 compounds
[1] = OVCAR-8, drug 100 nM plus siRNA knockdown of each of 18 genes, distance VAB−VA×VB in SD, single gene contributes at most +5 / −5, negative = synergy, positive = antagonism

Method: Comparisons of drug effect were performed using data generated on the same day. A minimum of two replicates was performed with drug library screening and a minimum of three replicates was done for all other tests.
Combinatorial effects were classified using two measures of combinatorial action: 1) the coefficient of drug interaction (CDI), defined as (VAB/(VA×VB)) and 2) the distance in standard deviation (SD) of VAB−(VA×VB). […] In confirmation studies significance was determined using a Student's T-test (two-tailed, unpaired) with p<0.05 indicating significance.
To measure the effect of a gene on drug effect, comparisons were made between high expressers of each gene and the wild type cells exposed to sham reagents.
In theory, CDI<1 is indicative of synergy while CDI>1 is indicative of antagonism or additive effect in a multiplicative model.

Compound	Score (sum of observed SD values for 18 genes) [1]	other results
CC(C)c1ccccc1Cc1cc(C(=O)Nc2ccc(S(=O)(=O)c3ccccc3C(C)(C)C)cc2)c(O)c(O)c1O [TW-37]	−36.72 SD	
COc1cc2c(N3CCN(C(=O)Nc4ccc(OC(C)C)cc4)CC3)ncnc2cc1OCCCN1CCCCC1 [Tandutinib]	−14.99 SD	
CNC(=O)c1cc(COc2nnc(Nc3ccc(Cl)cc3)c3ccoc23)ccn1 [Telatinib]	−5.24 SD	
CO[C@H]1C[C@@H]2CC[C@@H](C)[C@@](O)(O2)C(=O)C(=O)N2CCCC[C@H]2C(=O)O[C@H]([C@H](C)C[C@@H]2CC[C@@H](OC(=O)C(C)(CO)CO)[C@H](OC)C2)CC(=O)[C@H](C)/C=C(\C)[C@@H](O)[C@@H](OC)C(=O)[C@H](C)C[C@H](C)/C=C/C=C/C=C/1C [Temsirolimus]	-56.85 SD	
COc1cc2nccc(Oc3ccc(NC(=O)Nc4cc(C)on4)c(Cl)c3)c2cc1OC [Tivozanib]	−16.34 SD	
C[C@@H]1CCN(C(=O)CC#N)C[C@@H]1N(C)c1ncnc2[nH]ccc12 [Tofacitinib]	−13.15 SD	
CN(C)CCOc1ccc(/C(=C(/CCCl)c2ccccc2)c2ccccc2)cc1 [Toremifene Citrate]	−22.88 SD	
CCC(=O)N1CCN(c2ccc(-n3c(=O)ccc4cnc5ccc(-c6cnc7ccccc7c6)cc5c43)cc2C(F)(F)F)CC1 [Torin 1]	−32.55 SD	
Nc1ccc(-c2ccc3ncc4ccc(=O)n(-c5cccc(C(F)(F)F)c5)c4c3c2)cn1 [Torin 2]	−37.17 SD	
CC(C)C[C@@H](C(=O)N[C@H](C(=O)OC1CCCC1)c1ccccc1)[C@H](O)C(=O)NO [Tosedostat]	5.66 SD	
Cc1cc(Nc2cc(N3CCN(C)CC3)nc(Sc3ccc(NC(=O)C4CC4)cc3)n2)[nH]n1 [Tozasertib]	−4.08 SD	
CC(=O)Nc1cccc(-n2c(=O)n(C3CC3)c(=O)c3c(Nc4ccc(I)cc4F)n(C)c(=O)c(C)c32)c1 [Trametinib]	−27.77 SD	
C[C@]12C=CC(=O)C=C1CC[C@H]1[C@@H]3C[C@@H](O)[C@](O)(C(=O)CO)[C@@]3(C)C[C@H](O)[C@@]12F [Triamcinolone]	−26.66 SD	
CC(/C=C/C(=O)NO)=C\[C@@H](C)C(=O)c1ccc(N(C)C)cc1 [Trichostatin A]	−38.93 SD	synergy / antagonism of drug with gene knockdowns, in words (OVCAR-8): mostly synergistic
CC(C)[C@]12O[C@H]1[C@@H]1O[C@]13[C@]1(O[C@H]1C[C@H]1C4=C(CC[C@@]13C)C(=O)OC4)[C@@H]2O [Triptolide]	−15.95 SD	
CC(C)C[C@H](NC(=O)[C@@H](O)[C@H](N)Cc1ccccc1)C(=O)O [Ubinimex]	−17.36 SD	
Cc1ccc2c(=O)c3cccc(CC(=O)O)c3oc2c1C [Vadimezan]	−28.75 SD	
Cl.Cl.Clc1ccc(Nc2nnc(Cc3ccncc3)c3ccccc23)cc1 [Vatalanib 2HCI]	−3.51 SD	
CCOC(=O)C1=C[C@]2(CC)CCCN3CCc4c(n1c1ccccc41)[C@@H]32 [Vinpocetine]	−1.42 SD	
CC[C@@H]1C(=O)N(C)c2cnc(Nc3ccc(C(=O)N[C@H]4CC[C@H](N5CCN(CC6CC6)CC5)CC4)cc3OC)nc2N1C(C)C [Volasertib]	10.79 SD	

Compound	Score (sum of observed SD values for 18 genes) [1]	other results
CC(C)OC(=O)C1=CN(C(=O)c2ccc(F)c(F)c2)CC(C)(C)c2c1[nH]c1ccccc21 [WAY-362450]	−29.97 SD	
CCC[C@H](NC(=O)/C(C#N)=C/c1cccc(Br)n1)c1ccccc1 [WP1130]	3.15 SD	
C=CC(=O)Nc1cccc(Oc2nc(Nc3ccc(N4CCN(C)CC4)cc3OC)ncc2Cl)c1 [WZ4002]	−41.61 SD	
Oc1nc(-c2ccc(C(F)(F)F)cc2)nc2c1CSCC2 [XAV-939]	−29.25 SD	
COc1ccc(Cl)c(Nc2nc3ccccc3nc2NS(=O)(=O)c2cccc(NC(=O)C(C)(C)N)c2)c1 [XL147]	−30.94 SD	
CCn1c(=O)c(-c2cc[nH]n2)cc2c(C)nc(N)nc21 [XL765]	−10.06 SD	
C[C@@H](N)[C@H]1CC[C@H](C(=O)Nc2ccncc2)CC1.Cl.Cl [Y-27632 2HCI]	−28.91 SD	
COCCn1c2c([n+](Cc3cnccn3)c1C)C(=O)c1ccccc1C2=O [YM155]	−1.58 SD	
Nc1ccc(C(=O)Nc2cccc(-c3nc(N4CCOCC4)c4oc5ncccc5c4n3)c2)cn1 [YM201636]	−32.89 SD	
FC(F)c1nc2ccccc2n1-c1nc(N2CCOCC2)nc(N2CCOCC2)n1 [ZSTK474]	-52.94 SD	synergy / antagonism of drug with gene knockdowns, in words (OVCAR-8): synergy to the vast majority of genes
COc1nc(C)cnc1NS(=O)(=O)c1cccnc1-c1ccc(-c2nnco2)cc1 [Zibotentan]	10.07 SD	
CC(c1cc2ccccc2s1)N(O)C(N)=O (stereo not shown) [Zileuton]	−19.64 SD	
AXL: siRNA knocking down AXL; sense CAGCGAGAUUUAUGACUAUtt (SEQ ID NO 15) (sense CAGCGAGAUUUAUGACUAUNN; antisense AUAGUCAUAAAUCUCGCUGNN; listed as RNA, chemistry not given here)		number of tested HDACi highly synergistic with the gene knockdown (OVCAR-8): at least six; number of antagonistic/additive or highly antagonistic compounds with the gene knockdown (OVCAR-8): Twelve or fewer
AZ 3146	−22.56 SD	
KLHL5: siRNA knocking down KLHL5; sense CAGGCCGCCUUGAAUUAAAtt (SEQ ID NO 23) (sense CAGGCCGCCUUGAAUUAAANN; antisense UUUAAUUCAAGGCGGCCUGNN; listed as RNA, chemistry not given here)		number of tested HDACi highly synergistic with the gene knockdown (OVCAR-8): at least six; number of antagonistic/additive or highly antagonistic compounds with the gene knockdown (OVCAR-8): Twelve or fewer; number of Aurora Kinase inhibitors with significant synergy with the gene knockdown (OVCAR-8, eleven tested inhibitors): eight of the eleven
Maraviroc		Score (sum of observed SD values for 18 genes): 0.11 SD
Medroxyprogesterone	−35.82 SD	
S100A11: siRNA knocking down S100A11; sense GAACUAGCUGCCUUCACAAtt (SEQ ID NO 27) (sense GAACUAGCUGCCUUCACAANN; antisense UUGUGAAGGCAGCUAGUUCNN; chemistry not given here)		number of tested HDACi highly synergistic with the gene knockdown (OVCAR-8): 10 of 12
SLC7A11: siRNA knocking down SLC7A11; sense GGCUGAUUUAUCUUCGAUAtt (SEQ ID NO 31) (sense GGCUGAUUUAUCUUCGAUANN; antisense UAUCGAAGAUAAAUCAGCCNN; listed as RNA, chemistry not given here)		number of tested HDACi highly synergistic with the gene knockdown (OVCAR-8): at least six; number of antagonistic/additive or highly antagonistic compounds with the gene knockdown (OVCAR-8): Twelve or fewer
SNS-314 Mesylate	−1.05 SD	
